This is an account of results in publication PMC8272914 (Journal of medicinal chemistry, 2019).

One data set deals with D3R (Homo sapiens, UniProt P35462). Conditions: cited from earlier work.
The conditions of data set [1]: drug self-administration and drug discrimination, rats; cited from earlier work.
The target of a further data set is hD3R (Homo sapiens, UniProt P35462). Put plainly: Radioligand competition binding vs [3H]-. Conditions: for Ki: D3R Ki ± SEM, HEK293 cells stably expressing hD3R.
hD3R, sequence (P35462 whole entry): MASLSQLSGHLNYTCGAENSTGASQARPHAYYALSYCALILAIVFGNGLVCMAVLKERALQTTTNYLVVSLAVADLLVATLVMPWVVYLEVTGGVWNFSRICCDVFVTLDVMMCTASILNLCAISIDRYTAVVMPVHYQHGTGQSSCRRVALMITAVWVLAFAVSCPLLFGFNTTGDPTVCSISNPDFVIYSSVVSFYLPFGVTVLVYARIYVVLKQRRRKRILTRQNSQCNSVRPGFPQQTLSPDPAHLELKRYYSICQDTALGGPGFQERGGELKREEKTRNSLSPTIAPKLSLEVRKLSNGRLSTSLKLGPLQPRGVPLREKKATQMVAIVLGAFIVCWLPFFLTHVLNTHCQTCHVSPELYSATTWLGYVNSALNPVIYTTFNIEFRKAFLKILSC
The next data set addresses hD2R (Homo sapiens, UniProt P14416). Put plainly: Radioligand competition binding vs [3H]-. The settings on record: vs. [3H]-(R)-(+)-7-OH-DPAT; for Ki: D2R Ki ± SEM, HEK293 cells stably expressing hD2R. (Loss of bound radioactivity is the signal in a displacement assay; it reports binding, not function.)
The mark [2] stands for this setting: Table 1, vs. [3H]-(R)-(+)-7-OH-DPAT.
The mark [3] stands for this setting: Table 2, vs. [3H]-(R)-(+)-7-OH-DPAT.

hD2R, sequence (P14416 whole entry): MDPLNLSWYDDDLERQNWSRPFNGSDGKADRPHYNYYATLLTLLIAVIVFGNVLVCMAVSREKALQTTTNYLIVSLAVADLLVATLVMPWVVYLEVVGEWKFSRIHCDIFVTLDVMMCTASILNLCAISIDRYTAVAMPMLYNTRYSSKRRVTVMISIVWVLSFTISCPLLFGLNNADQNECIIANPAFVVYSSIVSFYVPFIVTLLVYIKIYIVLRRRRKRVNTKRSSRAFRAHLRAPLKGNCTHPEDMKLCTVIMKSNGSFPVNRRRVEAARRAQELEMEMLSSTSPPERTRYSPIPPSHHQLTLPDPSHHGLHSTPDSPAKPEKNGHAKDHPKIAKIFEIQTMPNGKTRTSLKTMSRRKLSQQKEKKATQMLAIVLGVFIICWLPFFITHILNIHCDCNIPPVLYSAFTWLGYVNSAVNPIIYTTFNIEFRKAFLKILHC
D3R, sequence (P35462 whole entry): as the sequence (P35462 whole entry) above

`CCCN1CCO[C@@H]2c3cc(O)ccc3OC[C@H]21` [Compound 1, (4aR,10bR)-4-propyl-3,4,4a,10b-tetrahydro-2H,5H-chromeno[4,3-b][1,4]oxazin-9-ol]: the “D3R over D2R selectivity” value at D3R is listed as ~ 10 fold.
For `CCCN1CC(c2ccc(N)nc2)OC[C@@H]1C` (stereo partly shown) [Compound 2], the abuse potential result in data set [1] is on record as “lack of abuse potential”.
For the molecule `CCCN(CCC)C1CCc2ccc(O)cc2C1` (stereo not shown) [Compound 7-OH-DPAT, 7-Hydroxy-N,N-dipropyl-2-aminotetralin], the “D3R over D2R selectivity” value on D3R is recorded as ~ 10 fold.
For the molecule `Oc1ccc2c(c1)[C@H]1OCCN[C@@H]1CO2` [Compound 15, (4aR,10bR)-3,4,4a,10b-tetrahydro-2H,5H-chromeno[4,3-b][1,4]oxazin-9-ol], at hD3R (vs. [3H]-(R)-(+)-7-OH-DPAT), the “reduced affinity (loss of affinity) at both D2R and D3R relative to parent 1” value was over 200 fold; the “selectivity for D3R over D2R” value came out at 10 fold.
For orientation: Ki means a measure of affinity in units of concentration, obtained from inhibition or displacement. On hD3R (setting [2]), `O=C(NCCCCNC1COc2ccc(O)cc2C1=O)c1cc2ccccc2[nH]1` (stereo not shown) [Compound 19a, N-(4-((6-hydroxy-4-oxochroman-3-yl)amino)butyl)-1H-indole-2-carboxamide] showed an inhibitory constant (Ki) of 0.354 ± 0.0451 µM. Further, the “reduced affinity (loss of affinity) at both D2R and D3R relative to parent 1” value at hD3R (vs. [3H]-(R)-(+)-7-OH-DPAT) was 100–1,000 fold.
For the molecule `O=C(NCCCCNC1COc2ccc(O)cc2C1=O)c1cc2ccccc2[nH]1` (stereo not shown) [Compound 19b, N-(4-((6-hydroxy-4-oxochroman-3-yl)amino)butyl)-1H-indole-2-carboxamide], the values for the Ki on hD2R (Table 1) and at hD3R (setting [2]) were 1.43 µM and 1.77 µM, respectively. In addition, at hD3R (vs. [3H]-(R)-(+)-7-OH-DPAT), the “reduced affinity (loss of affinity) at both D2R and D3R relative to parent 1” value is recorded as 100–1,000 fold.
`CCCN(CCC)c1ccc(C2CN(CCC)[C@@H](C)CO2)cn1` (stereo partly drawn) [Compound 20, 5-((5S)-5-methyl-4-propylmorpholin-2-yl)-N,N-dipropylpyridin-2-amine]: the D4R/D3R on hD3R (Table 2, ratio of Ki values vs. [3H]-(R)-(+)-7-OH-DPAT) is reported as over 4.74.
For `C[C@H]1CO[C@@H](c2ccc(N)nc2)CN1CCCCOc1ccc2c(c1)NC(=O)CC2` [Compound 26, 7-(4-((2S,5S)-2-(6-aminopyridin-3-yl)-5-methylmorpholino)butoxy)-3,4-dihydroquinolin-2(1H)-one], at hD3R (27 vs 25, 26 vs 24, vs. [3H]-(R)-(+)-7-OH-DPAT), the “higher D3R affinity compared to its (2R,5S) diastereoisomer” value is listed as 775 fold.
Regarding `C[C@H]1CO[C@@H](c2ccc(N)nc2)CN1CC1CC1CNC(=O)c1cc2ccccc2[nH]1` (stereo partly drawn) [Compound 37a, trans-N-((2-(((2S,5S)-2-(6-aminopyridin-3-yl)-5-methylmorpholino)methyl)cyclopropyl)methyl)-1H-indole-2-carboxamide], the “selectivity for D2R over D3R” value at hD2R is reported as ~ 5 fold. Besides, on hD3R (setting [3]), the affinity, expressed as Ki, was 1.19 µM.
Consider `C[C@H]1CO[C@@H](c2ccc(N)nc2)CN1CC1CC1CNC(=O)c1cc2ccccc2[nH]1` (stereo partly drawn) [Compound 37b, trans-N-((2-(((2S,5S)-2-(6-aminopyridin-3-yl)-5-methylmorpholino)methyl)cyclopropyl)methyl)-1H-indole-2-carboxamide], for which the inhibition constant Ki amounted to 0.707 ± 0.0198 µM at hD2R (Table 2) and 0.404 ± 0.034 µM on hD3R (setting [3]).
Consider `C[C@H]1CO[C@@H](c2ccc(N)nc2)CN1CC1CC1CNC(=O)c1cc2ccccc2[nH]1` (stereo partly drawn) [Compound 38a, cis-N-((2-(((2S,5S)-2-(6-aminopyridin-3-yl)-5-methylmorpholino)methyl)cyclopropyl)methyl)-1H-indole-2-carboxamide], for which the Ki at hD2R (Table 2) was found to be 1.07 µM; on hD3R (setting [3]), 2.15 µM.
`C[C@H]1CO[C@@H](c2ccc(N)nc2)CN1CC1CC1CNC(=O)c1cc2ccccc2[nH]1` (stereo partly drawn) [Compound 38b, cis-N-((2-(((2S,5S)-2-(6-aminopyridin-3-yl)-5-methylmorpholino)methyl)cyclopropyl)methyl)-1H-indole-2-carboxamide]: the figures for the Ki at hD2R (Table 2) and on hD3R (setting [3]) were 0.12 ± 0.0166 µM and 0.276 ± 0.03 µM, respectively.
Regarding `C[C@H]1CO[C@H](c2ccc(N)nc2)CN1CC1CC1CNC(=O)c1cc2ccccc2[nH]1` (stereo partly drawn) [Compound 39a, cis-N-((2-(((2R,5S)-2-(6-aminopyridin-3-yl)-5-methylmorpholino)methyl)cyclopropyl)methyl)-1H-indole-2-carboxamide], at hD3R (setting [3]), affinity was put at a Ki of 26.2 µM. This counts as double-digit micromolar.
Regarding `C[C@H]1CO[C@H](c2ccc(N)nc2)CN1CC1CC1CNC(=O)c1cc2ccccc2[nH]1` (stereo partly drawn) [Compound 39b, cis-N-((2-(((2R,5S)-2-(6-aminopyridin-3-yl)-5-methylmorpholino)methyl)cyclopropyl)methyl)-1H-indole-2-carboxamide], the Ki on hD2R (Table 2) was found to be 7.73 µM; at hD3R (setting [3]), 32.9 µM.
Turning to `CCc1cc(Cl)c(OC)c(N2CCN(CCCCOc3ccc4c(c3)NC(=O)CC4)CC2)c1` [Compound 57, 7-(4-(4-(3-chloro-5-ethyl-2-methoxyphenyl)piperazin-1-yl)butoxy)-3,4-dihydroquinolin-2(1H)-one], the “selectivity for D2R over D3R” value on hD2R stood at 22 fold.
In turn, `CCCN[C@H]1CCc2nc(N)sc2C1` [Pramipexole, reference compound] displayed a Ki at hD3R (setting [2]) of 0.00169 µM.
